{
  "source": "patent US8227421B2",
  "about": "“Fluorinated GHRH antagonists” (University of Miami, priority 2009, dated 2012)",
  "tested_on": "PC-3 human hormone-independent prostate cancer",
  "experiment": "Effect of treatment with GH-RH antagonists on PC-3 human prostate cancer xenografts in nude mice",
  "format": "in vivo",
  "details": "male nude mice, s.c. PC-3 xenografts, 2 ug/day s.c.",
  "description": "Male nude mice were implanted s.c. with 3 mm3 pieces of PC-3 human hormone-independent prostate cancer tissue on both flanks. When tumors reached a volume of approximately 50 mm3, the mice were divided into 14 experimental groups with 8 to 10 animals in each group and received single daily injections for 28 as follows: 1. Control (vehicle solution); 2. P-12211 (2 μg/day s.c.); 3. P-12307 (2 μg/day s.c.); 4. P-12317 (2 μg/day s.c.); 5. P-12408 (2 μg/day s.c.); 6. P-12409 (2 μg/day s.c.); 7. P-12457 (2 μg/day s.c.); 8. P-12473 (2 μg/day s.c.); 9. P-12479 (2 μg/day s.c.); 10. P-12600 (2 μg/day s.c.); 11. P-12601 (2 μg/day s.c.); 12. P-12602 (2 μg/day s.c.); 13. P-12603 (2 μg/day s.c.); and 14. P-12610 (2 μg/day s.c.).\nThe inhibitory effect of P-12473, P-12479, P-12600, P-12601, P-12602, and P-12610 were statistically significant (p<0.001).\nEffect of Treatment with GH-RH Antagonists on PC-3 Human Prostate Cancer Xenografts in Nude Mice",
  "data": [
    {"substance": "[PhAc^0-Tyr^1, D-Arg^2, Cpa^6, Ala^8, Har^9, Fpa5^10, His^11, Orn^12, Abu^15, His^20, Orn^21, Nle^27, D-Arg^28, Har^29, Ada^30]hGH-RH(1-30)NH2 [Peptide P-12610]", "values": [
      {"measurement": "Tumor Growth after 4 weeks (%)", "setting": "single daily injections for 28", "result": 474.98, "unit": "%"},
      {"measurement": "Tumor growth inhibition after 4 weeks (%)", "setting": "single daily injections for 28, versus control", "result": 77.78, "unit": "%"}
    ]}
  ]
}
